For 28 compounds, inhibition results are on record in patent publication US10106556B2, “Heterocyclic compound” (TAKEDA PHARMACEUTICAL COMPANY LIMITED, priority 2015, dated 2018).

SMILES strings stand for the structures.

The assay deals with T1, His-hMAGL (recombinant polyhistidine tagged human MAGL protein) (Homo sapiens, UniProt Q99685).
T1 construct: made in house; host or cells: E. coli BL21(DE3)
T1 sequence (Q99685 1-303): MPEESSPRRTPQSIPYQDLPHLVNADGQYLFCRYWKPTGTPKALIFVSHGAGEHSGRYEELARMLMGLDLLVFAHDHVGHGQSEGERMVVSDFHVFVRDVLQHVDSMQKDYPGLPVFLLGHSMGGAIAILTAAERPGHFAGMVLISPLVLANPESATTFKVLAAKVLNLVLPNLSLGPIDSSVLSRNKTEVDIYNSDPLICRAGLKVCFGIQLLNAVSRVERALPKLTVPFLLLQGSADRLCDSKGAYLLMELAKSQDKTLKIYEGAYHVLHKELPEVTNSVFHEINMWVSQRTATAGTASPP
As to the kind of experiment: Measurement of MAGL inhibitory activity (arachidonic acid production from 2-arachidonylglycerol, RapidFire-mass spectrometry). The format is biochemical. The note with it: MAGL inhibitory rate at 10 μM test compound; 60 min preincubation with His-hMAGL, 2-arachidonylglycerol substrate, 10 min reaction at room temperature. The procedure, abridged: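 Inhibition (%) was derived from arachidonic acid levels relative to enzyme-free and compound-free groups. Product was measured by online C4 solid-phase extraction and triple-quadrupole MS in negative SRM mode, corrected by arachidonic acid-d8 (3 μM in the acetonitrile added). Substrate was 2-arachidonylglycerol; enzyme was His-tagged recombinant human MAGL.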
The inhibition is the change of the read-out against control, counted positive when it falls. Turning to `O=C1COc2cc(F)c(C(=O)N3CC(COc4ccc(Cl)cc4-c4ccc(F)nc4)C3)cc2N1` [Example 204, 6-((3-((4-chloro-2-(6-fluoropyridin-3-yl)phenoxy)methyl)azetidin-1-yl)carbonyl)-7-fluoro-2H-1,4-benzoxazin-3(4H)-one], the inhibition at 10 µM stood at 100%. The result for `O=C1COc2cc(F)c(C(=O)N3CC(COc4ccc(Cl)cc4-c4ccc(Cl)nc4)C3)cc2N1` [Example 205, 6-((3-((4-chloro-2-(6-chloropyridin-3-yl)phenoxy)methyl)azetidin-1-yl)carbonyl)-7-fluoro-2H-1,4-benzoxazin-3(4H)-one] reads 103%. The result for `O=C1COc2cc(F)c(C(=O)N3CC(COc4ccc(Cl)cc4-c4ccncc4)C3)cc2N1` [Example 206, 6-((3-((4-chloro-2-(pyridin-4-yl)phenoxy)methyl)azetidin-1-yl)carbonyl)-7-fluoro-2H-1,4-benzoxazin-3(4H)-one] reads 104%; that for `O=C1COc2cc(F)c(C(=O)N3CC(COc4ccc(Cl)cc4-c4ccnc(F)c4)C3)cc2N1` [Example 207, 6-((3-((4-chloro-2-(2-fluoropyridin-4-yl)phenoxy)methyl)azetidin-1-yl)carbonyl)-7-fluoro-2H-1,4-benzoxazin-3(4H)-one], 100%; that for `O=C1COc2cc(F)c(C(=O)N3CC(COc4ccc(Cl)cc4-c4ccnc(Cl)c4)C3)cc2N1` [Example 208, 6-((3-((4-chloro-2-(2-chloropyridin-4-yl)phenoxy)methyl)azetidin-1-yl)carbonyl)-7-fluoro-2H-1,4-benzoxazin-3(4H)-one], 98%.

Take `O=C1COc2cc(F)c(C(=O)N3CC(COc4ccc(Cl)cc4-c4ccncc4F)C3)cc2N1` [Example 209, 6-((3-((4-chloro-2-(3-fluoropyridin-4-yl)phenoxy)methyl)azetidin-1-yl)carbonyl)-7-fluoro-2H-1,4-benzoxazin-3(4H)-one]: the inhibition at 10 µM turned out to be 101%. With `O=C1COc2cc(F)c(C(=O)N3CC(COc4ccc(Cl)cc4-c4ccncc4Cl)C3)cc2N1` [Example 210, 6-((3-((4-chloro-2-(3-chloropyridin-4-yl)phenoxy)methyl)azetidin-1-yl)carbonyl)-7-fluoro-2H-1,4-benzoxazin-3(4H)-one], the inhibition at 10 µM amounted to 101%.

Take `O=C1COc2cc(F)c(C(=O)N3CC(COc4ccc(Cl)cc4C4=CCOCC4)C3)cc2N1` [Example 211, 6-((3-((4-chloro-2-(3,6-dihydro-2H-pyran-4-yl)phenoxy)methyl)azetidin-1-yl)carbonyl)-7-fluoro-2H-1,4-benzoxazin-3(4H)-one]: the inhibition at 10 µM came to 101%. Take `CN1CC=C(c2cc(Cl)ccc2OCC2CN(C(=O)c3cc4c(cc3F)OCC(=O)N4)C2)CC1` [Example 212, 6-((3-((4-chloro-2-(1-methyl-1,2,3,6-tetrahydropyridin-4-yl)phenoxy)methyl)azetidin-1-yl)carbonyl)-7-fluoro-2H-1,4-benzoxazin-3(4H)-one]: the inhibition at 10 µM was determined as 94%.

Consider `Cn1cc(-c2cc(Cl)ccc2OCC2CN(C(=O)c3cc4c(cc3F)OCC(=O)N4)C2)cn1` [Example 213, 6-((3-((4-chloro-2-(1-methyl-1H-pyrazol-4-yl)phenoxy)methyl)azetidin-1-yl)carbonyl)-7-fluoro-2H-1,4-benzoxazin-3(4H)-one], for which the inhibition at 10 µM stood at 100%. Consider `O=C1COc2cc(F)c(C(=O)N3CC(COc4ccc(Cl)cc4-c4cnn(C(F)F)c4)C3)cc2N1` [Example 214, 6-((3-((4-chloro-2-(1-(difluoromethyl)-1H-pyrazol-4-yl)phenoxy)methyl)azetidin-1-yl)carbonyl)-7-fluoro-2H-1,4-benzoxazin-3(4H)-one], for which the inhibition at 10 µM came to 104%. On to `O=C1COc2cc(F)c(C(=O)N3CC(COc4ccc(Cl)cc4-c4cnn(C5CC5)c4)C3)cc2N1` [Example 215, 6-((3-((4-chloro-2-(1-cyclopropyl-1H-pyrazol-4-yl)phenoxy)methyl)azetidin-1-yl)carbonyl)-7-fluoro-2H-1,4-benzoxazin-3(4H)-one], for which the inhibition at 10 µM came out at 99%. For the compound `Cn1ccc(-c2cc(Cl)ccc2OCC2CN(C(=O)c3cc4c(cc3F)OCC(=O)N4)C2)n1` [Example 216, 6-((3-((4-chloro-2-(1-methyl-1H-pyrazol-3-yl)phenoxy)methyl)azetidin-1-yl)carbonyl)-7-fluoro-2H-1,4-benzoxazin-3(4H)-one], the inhibition at 10 µM was found to be 97%. Take `Cc1cc(-c2cc(Cl)ccc2OCC2CN(C(=O)c3cc4c(cc3F)OCC(=O)N4)C2)nn1C` [Example 217, 6-((3-((4-chloro-2-(1,5-dimethyl-1H-pyrazol-3-yl)phenoxy)methyl)azetidin-1-yl)carbonyl)-7-fluoro-2H-1,4-benzoxazin-3(4H)-one]: the inhibition at 10 µM is 104%. The result for `Cn1nccc1-c1cc(Cl)ccc1OCC1CN(C(=O)c2cc3c(cc2F)OCC(=O)N3)C1` [Example 218, 6-((3-((4-chloro-2-(1-methyl-1H-pyrazol-5-yl)phenoxy)methyl)azetidin-1-yl)carbonyl)-7-fluoro-2H-1,4-benzoxazin-3(4H)-one] reads 99%; that for `Cn1cccc1-c1cc(Cl)ccc1OCC1CN(C(=O)c2cc3c(cc2F)OCC(=O)N3)C1` [Example 219, 6-((3-((4-chloro-2-(1-methyl-1H-pyrrol-2-yl)phenoxy)methyl)azetidin-1-yl)carbonyl)-7-fluoro-2H-1,4-benzoxazin-3(4H)-one], 101%.

With `O=C1COc2cc(F)c(C(=O)N3CC(COc4ccc(Cl)cc4-c4ccc(C(F)(F)F)nc4)C3)cc2N1` [Example 220, 6-((3-((4-chloro-2-(6-(trifluoromethyl)pyridin-3-yl)phenoxy)methyl)azetidin-1-yl)carbonyl)-7-fluoro-2H-1,4-benzoxazin-3(4H)-one], the inhibition at 10 µM was 102%. For `O=C1COc2cc(F)c(C(=O)N3CC(COc4ccc(Cl)cc4-c4ccc5c(c4)CCO5)C3)cc2N1` [Example 221, 6-((3-((4-chloro-2-(2,3-dihydro-1-benzofuran-5-yl)phenoxy)methyl)azetidin-1-yl)carbonyl)-7-fluoro-2H-1,4-benzoxazin-3(4H)-one] the value was 102%. For `O=C1COc2cc(F)c(C(=O)N3CC(COc4ccc(Cl)cc4-c4cnc(C(F)(F)F)nc4)C3)cc2N1` [Example 222, 6-((3-((4-chloro-2-(2-(trifluoromethyl)pyrimidin-5-yl)phenoxy)methyl)azetidin-1-yl)carbonyl)-7-fluoro-2H-1,4-benzoxazin-3(4H)-one], the inhibition at 10 µM was 101%. On to `Cc1cc(-c2cc(Cl)ccc2OCC2CN(C(=O)c3cc4c(cc3F)OCC(=O)N4)C2)n(C)n1` [Example 223, 6-((3-((4-chloro-2-(1,3-dimethyl-1H-pyrazol-5-yl)phenoxy)methyl)azetidin-1-yl)carbonyl)-7-fluoro-2H-1,4-benzoxazin-3(4H)-one], for which the inhibition at 10 µM turned out to be 102%. For `CC(C)Cn1cc(-c2cc(Cl)ccc2OCC2CN(C(=O)c3cc4c(cc3F)OCC(=O)N4)C2)cn1` [Example 224, 6-((3-((4-chloro-2-(1-isobutyl-1H-pyrazol-4-yl)phenoxy)methyl)azetidin-1-yl)carbonyl)-7-fluoro-2H-1,4-benzoxazin-3(4H)-one] the value was 103%; for `O=C1COc2cc(F)c(C(=O)N3CC(COCC4CC4)C3)cc2N1` [Example 225, 6-((3-((cyclopropylmethoxy)methyl)azetidin-1-yl)carbonyl)-7-fluoro-2H-1,4-benzoxazin-3(4H)-one], 85%; for `Cc1cc(Cl)ccc1OCC1CN(C(=O)c2cc3c(cc2F)OCC(=O)N3)C1` [Example 226, 6-((3-((4-chloro-2-methylphenoxy)methyl)azetidin-1-yl)carbonyl)-7-fluoro-2H-1,4-benzoxazin-3(4H)-one], 101%. For `O=C1COc2cc(F)c(C(=O)N3CC(COc4ccc(-c5ccccn5)cc4F)C3)cc2N1` [Example 227, 7-fluoro-6-((3-((2-fluoro-4-(pyridin-2-yl)phenoxy)methyl)azetidin-1-yl)carbonyl)-2H-1,4-benzoxazin-3(4H)-one] the value was 97%; for `O=C1COc2cc(F)c(C(=O)N3CC(COc4ccc(-c5ccc(F)cn5)cc4F)C3)cc2N1` [Example 228, 7-fluoro-6-((3-((2-fluoro-4-(5-fluoropyridin-2-yl)phenoxy)methyl)azetidin-1-yl)carbonyl)-2H-1,4-benzoxazin-3(4H)-one], 94%. For `O=C1COc2cc(F)c(C(=O)N3CC(COc4ccc(-c5ccc(Cl)cn5)cc4F)C3)cc2N1` [Example 229, 6-((3-((4-(5-chloropyridin-2-yl)-2-fluorophenoxy)methyl)azetidin-1-yl)carbonyl)-7-fluoro-2H-1,4-benzoxazin-3(4H)-one] the value was 88%. In the case of `Cc1cccc(-c2ccc(OCC3CN(C(=O)c4cc5c(cc4F)OCC(=O)N5)C3)c(F)c2)n1` [Example 230, 7-fluoro-6-((3-((2-fluoro-4-(6-methylpyridin-2-yl)phenoxy)methyl)azetidin-1-yl)carbonyl)-2H-1,4-benzoxazin-3(4H)-one], the inhibition at 10 µM was 95%. For `Cc1cccnc1-c1ccc(OCC2CN(C(=O)c3cc4c(cc3F)OCC(=O)N4)C2)c(F)c1` [Example 231, 7-fluoro-6-((3-((2-fluoro-4-(3-methylpyridin-2-yl)phenoxy)methyl)azetidin-1-yl)carbonyl)-2H-1,4-benzoxazin-3(4H)-one] the value was 100%.
